Assay [1] deals with T1, von Hippel-Lindau disease tumor suppressor/Polycomb protein SUZ12 (Homo sapiens, UniProt Q15022+P40337). As to the kind of experiment: Protac activity at VHL/SUZ12 in human DB cells assessed as degradation of protein measured after 24 to 72 hrs by Bradford assay kit method relative to control. The assay is classed as cell-based. Particulars: time 24-72 hrs.
Target sequence in this assay (P40337 whole entry, looked up): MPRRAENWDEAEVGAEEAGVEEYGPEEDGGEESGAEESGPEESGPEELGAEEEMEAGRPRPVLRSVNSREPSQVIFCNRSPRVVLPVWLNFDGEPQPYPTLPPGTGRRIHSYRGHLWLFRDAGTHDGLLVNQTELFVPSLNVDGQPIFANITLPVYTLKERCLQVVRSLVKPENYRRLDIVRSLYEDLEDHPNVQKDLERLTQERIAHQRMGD
Target sequence in this assay (Q15022 whole entry, looked up): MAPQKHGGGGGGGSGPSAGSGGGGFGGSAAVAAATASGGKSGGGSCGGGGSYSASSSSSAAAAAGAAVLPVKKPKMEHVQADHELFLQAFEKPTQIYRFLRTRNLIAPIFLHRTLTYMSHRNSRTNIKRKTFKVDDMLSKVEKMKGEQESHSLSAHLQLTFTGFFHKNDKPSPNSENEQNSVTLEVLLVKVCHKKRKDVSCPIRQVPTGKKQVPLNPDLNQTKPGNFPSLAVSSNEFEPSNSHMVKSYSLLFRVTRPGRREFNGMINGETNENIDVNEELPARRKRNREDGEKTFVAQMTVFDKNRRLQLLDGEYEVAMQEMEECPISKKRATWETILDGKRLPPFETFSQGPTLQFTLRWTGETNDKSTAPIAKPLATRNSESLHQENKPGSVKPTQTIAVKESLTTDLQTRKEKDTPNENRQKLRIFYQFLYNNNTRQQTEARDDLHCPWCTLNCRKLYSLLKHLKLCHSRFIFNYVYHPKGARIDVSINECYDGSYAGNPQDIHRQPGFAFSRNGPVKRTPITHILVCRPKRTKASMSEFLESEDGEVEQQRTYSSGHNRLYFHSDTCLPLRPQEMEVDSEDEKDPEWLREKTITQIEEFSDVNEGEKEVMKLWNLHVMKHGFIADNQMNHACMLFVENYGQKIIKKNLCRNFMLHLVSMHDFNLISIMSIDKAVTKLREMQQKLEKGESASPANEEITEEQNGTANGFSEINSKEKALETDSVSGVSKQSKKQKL
For assay [2], the target named is T1, von Hippel-Lindau disease tumor suppressor/Polycomb protein SUZ12. As to the kind of experiment: Protac activity at VHL/SUZ12 in human DB cells assessed as degradation of protein measured after 24 to 72 hrs by Bradford assay kit method. The assay is classed as cell-based.
Target sequence in this assay (Q15022 whole entry): as the sequence (Q15022 whole entry, looked up) above
Target sequence in this assay (P40337 whole entry): as the sequence (P40337 whole entry, looked up) above
Assay [3] deals with T2, von Hippel-Lindau disease tumor suppressor/Polycomb protein EED (Homo sapiens, UniProt O75530+P40337). As to the kind of experiment: Protac activity at VHL/EED in human DB cells assessed as degradation of protein measured after 24 to 72 hrs by Bradford assay kit method. The assay is classed as cell-based.
Target sequence in this assay (O75530 whole entry): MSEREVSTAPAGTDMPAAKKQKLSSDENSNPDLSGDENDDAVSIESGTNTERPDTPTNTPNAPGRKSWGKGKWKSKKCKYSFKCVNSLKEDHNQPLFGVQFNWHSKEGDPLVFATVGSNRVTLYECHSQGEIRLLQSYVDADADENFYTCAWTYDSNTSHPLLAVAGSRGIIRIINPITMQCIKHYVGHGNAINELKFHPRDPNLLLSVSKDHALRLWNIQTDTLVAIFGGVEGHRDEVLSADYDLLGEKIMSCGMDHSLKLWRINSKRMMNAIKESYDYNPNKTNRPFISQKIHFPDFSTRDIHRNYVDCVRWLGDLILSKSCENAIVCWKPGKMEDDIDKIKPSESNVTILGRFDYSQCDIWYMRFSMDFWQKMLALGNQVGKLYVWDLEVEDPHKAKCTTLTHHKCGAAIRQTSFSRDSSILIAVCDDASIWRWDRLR
Target sequence in this assay (P40337 whole entry): as the sequence (P40337 whole entry, looked up) above
For assay [4], the target named is Histone-lysine N-methyltransferase EZH2 (Homo sapiens, UniProt Q15910). As to the kind of experiment: Inhibition of EZH2 (unknown origin).
For assay [5], the target named is T3, von Hippel-Lindau disease tumor suppressor/Histone-lysine N-methyltransferase EZH2 (Homo sapiens, UniProt Q15910+P40337). As to the kind of experiment: Protac activity at VHL/EZH2 in human DB cells assessed as degradation of protein measured after 24 to 72 hrs by Bradford assay kit method relative to control. The assay is classed as cell-based. The note with it: time 24-72 hrs.
Target sequence in this assay (P40337 whole entry, looked up): as above
Target sequence in this assay (Q15910 whole entry, looked up): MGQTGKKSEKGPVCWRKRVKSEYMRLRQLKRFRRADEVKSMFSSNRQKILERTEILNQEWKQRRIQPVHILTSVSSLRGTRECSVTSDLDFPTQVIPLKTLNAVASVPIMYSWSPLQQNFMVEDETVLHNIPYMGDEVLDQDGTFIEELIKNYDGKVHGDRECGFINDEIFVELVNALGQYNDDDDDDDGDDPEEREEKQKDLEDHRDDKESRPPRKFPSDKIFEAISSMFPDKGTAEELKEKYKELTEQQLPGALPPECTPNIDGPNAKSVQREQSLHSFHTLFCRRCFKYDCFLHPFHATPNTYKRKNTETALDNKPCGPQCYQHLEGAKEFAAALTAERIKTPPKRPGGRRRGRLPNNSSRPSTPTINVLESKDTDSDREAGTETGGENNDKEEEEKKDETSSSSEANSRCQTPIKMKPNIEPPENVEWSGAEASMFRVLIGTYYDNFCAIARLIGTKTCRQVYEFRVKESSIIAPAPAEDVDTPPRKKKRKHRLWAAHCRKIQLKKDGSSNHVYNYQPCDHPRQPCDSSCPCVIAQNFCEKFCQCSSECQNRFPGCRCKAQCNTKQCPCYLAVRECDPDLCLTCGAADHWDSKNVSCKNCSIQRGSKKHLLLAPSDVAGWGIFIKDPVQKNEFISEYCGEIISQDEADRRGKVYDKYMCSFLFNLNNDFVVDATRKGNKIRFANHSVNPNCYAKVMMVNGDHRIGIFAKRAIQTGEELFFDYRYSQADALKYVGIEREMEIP

Assay [6] deals with T3, von Hippel-Lindau disease tumor suppressor/Histone-lysine N-methyltransferase EZH2. As to the kind of experiment: Protac activity at VHL/EZH2 in human DB cells assessed as degradation of protein measured after 24 to 72 hrs by Bradford assay kit method. The assay is classed as cell-based.
Target sequence in this assay (Q15910 whole entry): as the sequence (Q15910 whole entry, looked up) above
Target sequence in this assay (P40337 whole entry): as the sequence (P40337 whole entry, looked up) above
The subject of assay [7] is DB. As to the kind of experiment: Antiproliferative activity against human DB cells measured after 9 days by tryphan blue staining. The assay is classed as functional, cell-based. The note with it: 216 h.
Assay [8] has as its system Pfeiffer. As to the kind of experiment: Antiproliferative activity against human Pfeiffer cells assessed as viable cells with replenishment of medium with compound for every three days upto 6 days by trypan blue staining based automated bio-rad TC20 cell counter method. The assay is classed as functional.
Assay [9] addresses T2, von Hippel-Lindau disease tumor suppressor/Polycomb protein EED. As to the kind of experiment: Protac activity at VHL/EED in human DB cells assessed as degradation of protein measured after 24 to 72 hrs by Bradford assay kit method relative to control. Particulars: time 24-72 hrs. The assay is classed as cell-based.
Target sequence in this assay (O75530 2-441 limits assumed): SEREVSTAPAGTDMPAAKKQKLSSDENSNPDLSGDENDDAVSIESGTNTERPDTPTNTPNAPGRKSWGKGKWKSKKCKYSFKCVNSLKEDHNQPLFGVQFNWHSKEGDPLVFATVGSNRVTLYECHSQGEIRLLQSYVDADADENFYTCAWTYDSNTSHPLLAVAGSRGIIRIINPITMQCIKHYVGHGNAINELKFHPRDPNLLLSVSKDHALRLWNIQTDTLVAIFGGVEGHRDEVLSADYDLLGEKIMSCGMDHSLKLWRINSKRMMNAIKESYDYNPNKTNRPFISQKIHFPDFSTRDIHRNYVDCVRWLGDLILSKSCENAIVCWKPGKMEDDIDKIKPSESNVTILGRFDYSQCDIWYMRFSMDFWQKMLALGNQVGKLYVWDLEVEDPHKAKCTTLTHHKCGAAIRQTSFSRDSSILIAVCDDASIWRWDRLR
Target sequence in this assay (P40337 whole entry partner): as the sequence (P40337 whole entry, looked up) above
The target of assay [10] is T3, von Hippel-Lindau disease tumor suppressor/Histone-lysine N-methyltransferase EZH2. As to the kind of experiment: Protac activity at VHL/EZH2 in human HeLa cells assessed as degradation of protein measured after 24 hrs by Bradford assay kit method. The assay is classed as cell-based.
Target sequence in this assay (Q15910 whole entry): as the sequence (Q15910 whole entry, looked up) above
Target sequence in this assay (P40337 whole entry): as the sequence (P40337 whole entry, looked up) above
Assay [11] deals with DB. As to the kind of experiment: Antiproliferative activity against human DB cells assessed as viable cells with replenishment of medium with compound for every three days upto 9 days by trypan blue staining based automated bio-rad TC20 cell counter method. The assay is classed as functional.
The target of assay [12] is T2, von Hippel-Lindau disease tumor suppressor/Polycomb protein EED. As to the kind of experiment: Protac activity at VHL/EED in human HeLa cells assessed as degradation of protein measured after 24 hrs by Bradford assay kit method. The assay is classed as cell-based.
Target sequence in this assay (O75530 whole entry): as the sequence (O75530 whole entry) above
Target sequence in this assay (P40337 whole entry): as the sequence (P40337 whole entry, looked up) above
Assay [13] concerns Pfeiffer. As to the kind of experiment: Antiproliferative activity against human Pfeiffer cells measured after 3 days by tryphan blue staining. The assay is classed as functional, cell-based. The note with it: 72 h.
The target of assay [14] is T1, von Hippel-Lindau disease tumor suppressor/Polycomb protein SUZ12. As to the kind of experiment: Protac activity at VHL/SUZ12 in human HeLa cells assessed as degradation of protein measured after 24 hrs by […] relative to control. The assay is classed as cell-based.
Target sequence in this assay (P40337 whole entry, looked up): as above
Target sequence in this assay (Q15022 whole entry, looked up): as the sequence (Q15022 whole entry, looked up) above

Histone-lysine N-methyltransferase EZH2, sequence (Q15910 whole entry): as the sequence (Q15910 whole entry, looked up) above

Regarding `Cc1ncsc1-c1ccc(CNC(=O)[C@@H]2C[C@@H](O)CN2C(=O)[C@@H](NC(=O)CCCNC(=O)c2ccc(-c3cnc(NCc4ccco4)n4cnnc34)cc2)C(C)(C)C)cc1`, the Emax in [1] came to 82%; in [5], 96%; in [9], 94%; in assay [14], 22%. In addition, the DC50 in assay [2] worked out at 590 nM; in [3], 610 nM; in [6] it was 670 nM; in [10] it was 300 nM; in assay [12], 790 nM. Besides, the IC50 in assay [4] was 300 nM; in assay [13] it was 410 nM. Further, the EC50 in assay [7] was 3400 nM; in [8], 410 nM; in assay [11] it was 3400 nM.

Usually Emax stands for the greatest response seen or fitted, relative to the assay's reference. The DC50 is the concentration giving 50% degradation. For orientation: IC50 means the concentration needed to halve the response being measured. Lower therefore signals greater potency. The term EC50 denotes the concentration that produces a half-maximal response.

These data come from ChEMBL document CHEMBL5126528, “Recent strategies targeting Embryonic Ectoderm Development (EED) for cancer therapy: Allosteric inhibitors, PPI inhibitors, and PROTACs” (Eur J Med Chem, 2022).
